Measurements taken from patent US20250197393A1, “INTEGRIN INHIBITOR AND USES THEREOF” (Pliant Therapeutics, Inc., priority 2023, published 2025).
In brackets after ≈: the same amount, converted by molar mass.

How the values were obtained:
Type in all cases: physicochemical
[1] = Solubility at 37° C. in aqueous and biorelevant media; conditions: for solubility at 2 h / solubility at 24 h: 37 °C, thermodynamic from solid; for solubility at 2 h / solubility at 24 h / Solubility (mg/ mL) 2 h / Solubility (mg/ mL) 24 h: target 250 mg/mL (in free form); for pH of supernatant at 24 h / Solubility (mg/ mL) 2 h / Solubility (mg/ mL) 24 h: listed as L-Tartaric acid cocrystal Pattern A, hydrate
Experimental: To prepare the samples of (S)-4-((2-methoxyethyl)(4-(5,6,7,8-tetrahydro-1,8-naphthyridin-2-yl)butyl)amino)-2-(quinazolin-4-ylamino)butanoic acid L-tartaric acid cocrystal Pattern A, 80.6 mg was weighed into a 2 mL glass vial. Next, 0.18 mL of solubility medium was added. The salt amount used is equivalent to 45 mg of the amorphous free form. Obtained suspensions/solutions were stirred at 37° C. at 400 rpm and sampled at 2 h and at 24 h. The samples were centrifuged at 37° C. at 14,000 rpm for 5 min. Supernatants were analyzed by HPLC and pH meter for solubility and pH value, respectively. […]

[2] = Hygroscopicity by dynamic vapor sorption (DVS)
Experimental: Dynamic vapor sorption of Pattern A was studied using a Surface Measurement Systems (SMS) Intrinsic instrument. Total gas flow was 200 sccm. The oven temperature was 25° C. Water was used as the solvent, in a cycle of 40-95-0-95-40% RH. The stage step was 10% RH and equilibrium was within 0.002 dm/dt (%/min) (minimum dm/dt stability duration: 60 min; maximum dm/dt stage time: 360 min). The sample mass was about 5-50 mg.
The water sorption and desorption behavior of (S)-4-((2-methoxyethyl)(4-(5,6,7,8-tetrahydro-1,8-naphthyridin-2-yl)butyl)amino)-2-(quinazolin-4-ylamino)butanoic acid L-tartaric acid cocrystal Pattern A was investigated by DVS at 25° C. with a cycle of 40-95-0-95-40% RH. XRPD was measured after the DVS test to determine form change. […] It dehydrated in 10% RH and below.

[3] = Water activity experiments in MeOH/water (relative stability of hydrate Pattern A and hydrate Pattern B); conditions: for water activity (a.w.) at which the pattern was obtained: methanol/water
Experimental: The relative stability of the hydrate Pattern A and the hydrate Pattern B was investigated using water activity experiments in MeOH/water systems. About 5 mg of (S)-4-((2-methoxyethyl)(4-(5,6,7,8-tetrahydro-1,8-naphthyridin-2-yl)butyl)amino)-2-(quinazolin-4-ylamino)butanoic acid L-tartaric acid cocrystal Pattern A and 5 mg of (S)-4-((2-methoxyethyl)(4-(5,6,7,8-tetrahydro-1,8-naphthyridin-2-yl)butyl)amino)-2-(quinazolin-4-ylamino)butanoic acid L-tartaric acid cocrystal Pattern B were added to 0.1-0.5 mL saturated solutions of the methanol/water system. Obtained suspensions were stirred at 5° C., 25° C. and 50° C. for up to 21 days, respectively. Solid parts (wet cakes) were isolated by centrifugation filtration and investigated by XRPD.

Compression study = conditions: 5 minutes; for XRPD after compression: hydraulic press
Experimental: About 20 mg of (S)-4-((2-methoxyethyl)(4-(5,6,7,8-tetrahydro-1,8-naphthyridin-2-yl)butyl)amino)-2-(quinazolin-4-ylamino)butanoic acid L-tartaric acid cocrystal Pattern A was compressed for 5 minutes under 2 MPa, 5 MPa and 10 MPa with a hydraulic press. Potential form change and degree of crystallinity were evaluated by XRPD.

[4] = Wet granulation simulation
Experimental: Water or ethanol was added dropwise to about 20 mg of (S)-4-((2-methoxyethyl)(4-(5,6,7,8-tetrahydro-1,8-naphthyridin-2-yl)butyl)amino)-2-(quinazolin-4-ylamino)butanoic acid L-tartaric acid cocrystal Pattern A until the sample was wetted sufficiently. The wet sample was ground gently using a mortar and pestle. Post granulation sample was dried under ambient conditions for 30 min. The potential form change and degree of crystallinity were evaluated by XRPD.

[5] = Bulk stability of solid under temperature/humidity stress (HPLC, appearance, XRPD); conditions: 40° C./75% RH in an open container, 4 weeks; listed as L-tartaric acid cocrystal Pattern A
[6] = FaSSGF (fasted state simulated gastric fluid), pH 1.6, fassgf or other biorelevant, FaSSGF, pH 1.6, 37° C.
[7] = FeSSIF-v1 (fed state simulated intestinal fluid), pH 5, fessif, FeSSIF-v1, pH 5.0, 37° C.
[8] = pH 1.2 HCl buffer, pH 1.2, simulated gastric fluid
[9] = pH 4.5 acetate buffer (50 mM), pH 4.5, aqueous buffer
[10] = pH 6.8 phosphate buffer (50 mM), 37° C.
[11] = 10% relative humidity at 25° C.
[12] = 20% relative humidity at 25° C.
[13] = 30% relative humidity at 25° C.
[14] = 40% relative humidity at 25° C.
[15] = 50% relative humidity at 25° C.
[16] = 60% relative humidity at 25° C.
[17] = 70% relative humidity at 25° C.
[18] = 80% relative humidity at 25° C.
[19] = 90% relative humidity at 25° C.
[20] = 95% relative humidity at 25° C.

COCCN(CCCCc1ccc2c(n1)NCCC2)CC[C@H](Nc1ncnc2ccccc12)C(=O)O [Pattern A, (S)-4-((2-methoxyethyl)(4-(5,6,7,8-tetrahydro-1,8-naphthyridin-2-yl)butyl)amino)-2-(quinazolin-4-ylamino)butanoic acid]
solubility at 2 h [1, 6]: 206 mg/mL (≈ 419 mM) | solubility at 24 h [1, 6]: 224 mg/mL (≈ 455 mM) | pH of supernatant at 24 h ([1]; FaSSGF, pH 1.6, 37° C.): (1.6) | Solubility (mg/ mL) 2 h ([1]; FaSSIF-v1, pH 6.5, 37° C.): 84.1 mg/mL (≈ 171 mM) | Solubility (mg/ mL) 24 h ([1]; FaSSIF-v1, pH 6.5, 37° C.): 63.2 mg/mL (≈ 128 mM) | pH of supernatant at 24 h ([1]; FaSSIF-v1, pH 6.5, 37° C.): (6.6) | solubility at 2 h [1, 7]: 203 mg/mL (≈ 413 mM) | solubility at 24 h [1, 7]: 217 mg/mL (≈ 440 mM) | pH of supernatant at 24 h ([1]; FeSSIF-v1, pH 5.0, 37° C.): (5.0) | pH of supernatant at 24 h ([1]; Water, 37° C.): (3.2) | pH of supernatant at 24 h ([1]; pH 1.2 HCl buffer, 37° C.): (1.4) | solubility at 2 h [1, 8]: 215 mg/mL (≈ 436 mM) | solubility at 24 h [1, 8]: 222 mg/mL (≈ 451 mM) | pH of supernatant at 24 h ([1]; pH 4.5 acetate buffer (50 mM), 37° C.): (4.4) | solubility at 2 h [1, 9]: 214 mg/mL (≈ 435 mM) | solubility at 24 h [1, 9]: 220 mg/mL (≈ 448 mM) | Solubility (mg/ mL) 2 h [1, 10]: 28.4 mg/mL (≈ 57.7 mM) | Solubility (mg/ mL) 24 h [1, 10]: 56.4 mg/mL (≈ 114 mM) | pH of supernatant at 24 h [1, 10]: (6.8) | solubility at 2 h ([1]; water): 207 mg/mL (≈ 421 mM) | solubility at 24 h ([1]; water): 218 mg/mL (≈ 442 mM) | 1st desorp. Weight % change ([2]; 0% relative humidity at 25° C.): 0.0% | 2nd sorp. Weight % change ([2]; 0% relative humidity at 25° C.): 0.0% | 1st desorp. Weight % change [2, 11]: 5.2% | 2nd sorp. Weight % change [2, 11]: 4.7% | 1st desorp. Weight % change [2, 12]: 7.4% | 2nd sorp. Weight % change [2, 12]: 7.1% | 1st desorp. Weight % change [2, 13]: 8.3% | 2nd sorp. Weight % change [2, 13]: 8.0% | 1st desorp. Weight % change [2, 14]: 8.9% | 1st sorp. Weight % change [2, 14]: 8.5% | 2nd desorp. Weight % change [2, 14]: 8.9% | 2nd sorp. Weight % change [2, 14]: 8.7% | 1st desorp. Weight % change [2, 15]: 9.4% | 1st sorp. Weight % change [2, 15]: 9.0% | 2nd desorp. Weight % change [2, 15]: 9.4% | 2nd sorp. Weight % change [2, 15]: 9.2% | 1st desorp. Weight % change [2, 16]: 9.8% | 1st sorp. Weight % change [2, 16]: 9.6% | 2nd desorp. Weight % change [2, 16]: 9.9% | 2nd sorp. Weight % change [2, 16]: 9.7% | 1st desorp. Weight % change [2, 17]: 10.4% | 1st sorp. Weight % change [2, 17]: 10.1% | 2nd desorp. Weight % change [2, 17]: 10.4% | 2nd sorp. Weight % change [2, 17]: 10.2% | 1st desorp. Weight % change [2, 18]: 11.1% | 1st sorp. Weight % change [2, 18]: 10.7% | 2nd desorp. Weight % change [2, 18]: 11.1% | 2nd sorp. Weight % change [2, 18]: 10.9% | 1st desorp. Weight % change [2, 19]: 12.6% | 1st sorp. Weight % change [2, 19]: 12.2% | 2nd desorp. Weight % change [2, 19]: 12.6% | 2nd sorp. Weight % change [2, 19]: 12.1% | 1st desorp. Weight % change [2, 20]: 18.7% | 1st sorp. Weight % change [2, 20]: 18.7% | 2nd desorp. Weight % change [2, 20]: 16.1% | 2nd sorp. Weight % change [2, 20]: 16.1% | XRPD following the DVS experiments ([2]; after cycle 40-95-0-95-40% RH, 25° C.): no form change | hygroscopicity ([2]; at 70% RH and below, 25° C.): slightly hygroscopic | water uptake ([2]; from 40% RH to 70% RH, 25° C.): about 1.6% | water uptake ([2]; from 80% RH to 95% RH, 25° C.): about 8.0% | behaviour at low humidity ([2]; in 10% RH and below, 25° C.): dehydrated | hygroscopicity ([2]; in 80% RH and above, 25° C.): moderately hygroscopic | water loss on dehydration ([2]; relative humidity below 10% RH, water absorbed back at 10% RH and above): about 5% | thermodynamic stability based on water activity experiments ([3]; 0, 0.2, 0.4, 0.6, 0.8 and 1.0 water activity): thermodynamically stable | water activity (a.w.) at which the pattern was obtained ([3]; 5° C.): ≤ 0.8 | water activity (a.w.) at which the pattern was obtained ([3]; 25° C.): ≤ 0.8 | water activity (a.w.) at which the pattern was obtained ([3]; 50° C.): ≤ 1.0 | degree of crystallinity after compression (XRPD) (Compression study; 2 MPa, 5 MPa and 10 MPa): slight decrease in crystallinity | form change after compression (XRPD) (Compression study; 2 MPa, 5 MPa and 10 MPa): no form change | XRPD after compression (Compression study; 2 MPa): Pattern A | XRPD after compression (Compression study; 5 MPa): Pattern A | XRPD after compression (Compression study; 10 MPa): Pattern A | XRPD after wet granulation ([4]; Granulation solvent Ethanol): Pattern A | Comments (crystallinity after wet granulation) ([4]; Granulation solvent Water): Slight decrease in crystallinity | XRPD after wet granulation ([4]; Granulation solvent Water): Pattern A | purity decrease [5]: 2.1%
